Source: paper PMC5266325, “The Rice Dynamin-Related Protein OsDRP1E Negatively Regulates Programmed Cell Death by Controlling the Release of Cytochrome c from Mitochondria” (PLoS Pathogens, 2017)
Numbering of substitutions follows the chain as printed.

Assays:
OsDRP1E (MBP-OsDRP1E) [1] = target: T1, OsDRP1E (MBP-OsDRP1E) (Oryza sativa, UniProt Q650Z3, E409V); test: colorimetric phosphate release GTPase assay; assay type: biochemical; conditions: MBP fusion; time course and 2, 5, 10 ug protein; lower activity than wild type
T1 construct: gene Os09g0572900; tag kept; native protein 70 kDa
T1 sequence (Q650Z3 1-626 E409V): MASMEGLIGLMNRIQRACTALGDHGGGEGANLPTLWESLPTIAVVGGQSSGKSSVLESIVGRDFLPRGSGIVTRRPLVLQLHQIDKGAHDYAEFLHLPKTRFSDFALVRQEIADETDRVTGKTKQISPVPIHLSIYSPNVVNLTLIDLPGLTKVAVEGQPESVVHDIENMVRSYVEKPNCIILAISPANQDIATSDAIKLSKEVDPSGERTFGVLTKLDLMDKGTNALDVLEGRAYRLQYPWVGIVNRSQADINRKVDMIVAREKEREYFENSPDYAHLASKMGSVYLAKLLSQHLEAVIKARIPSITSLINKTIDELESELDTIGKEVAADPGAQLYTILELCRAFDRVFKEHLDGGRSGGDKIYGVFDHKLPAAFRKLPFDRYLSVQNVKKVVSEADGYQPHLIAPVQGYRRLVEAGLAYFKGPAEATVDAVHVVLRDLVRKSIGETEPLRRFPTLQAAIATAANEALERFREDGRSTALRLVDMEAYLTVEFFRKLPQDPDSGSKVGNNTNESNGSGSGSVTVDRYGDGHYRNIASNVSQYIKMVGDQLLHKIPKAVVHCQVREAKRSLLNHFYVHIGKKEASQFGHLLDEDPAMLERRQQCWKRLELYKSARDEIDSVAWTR

OsDRP1E (MBP-OsDRP1E) [2] = target: T2, OsDRP1E (MBP-OsDRP1E) (Oryza sativa, UniProt Q650Z3); test: colorimetric phosphate release GTPase assay; assay type: biochemical; conditions: MBP fusion; time course and 2, 5, 10 ug protein
T2 construct: gene Os09g0572900; tag kept; native protein 70 kDa
T2 sequence (Q650Z3 1-626): T1 sequence (Q650Z3 1-626 E409V) with V409E

## Nc1nc2c(ncn2[C@@H]2O[C@H](COP(=O)(O)OP(=O)(O)OP(=O)(O)O)[C@@H](O)[C@H]2O)c(=O)[nH]1 [GTP]
OsDRP1E (MBP-OsDRP1E) [1]
  colorimetric phosphate release GTPase assay: both MBP-OsDRP1E and MBP-E409V displayed catalytic activity towards the substrate GTP
OsDRP1E (MBP-OsDRP1E) [2]
  colorimetric phosphate release GTPase assay: both MBP-OsDRP1E and MBP-E409V displayed catalytic activity towards the substrate GTP
